Measurements taken from PubChem BioAssay (NCI).
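All cell lines were grown in 96-well plates and treated with compound for 48 hours. GI50 marks 50% less growth. TGI: total growth inhibition.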

What was measured:
Assay in all cases: inhibition of tumour cell growth, NCI panel, 48 h
786-0 renal = test system: 786-0 renal
COLO 205 colon = test system: COLO 205 colon
HOP-62 NSCLC = test system: HOP-62 NSCLC
HOP-92 NSCLC = test system: HOP-92 NSCLC
M14 melanoma = test system: M14 melanoma
MDA-MB-435 = test system: MDA-MB-435
MOLT-4 leukemia = test system: MOLT-4 leukemia
OVCAR-4 ovarian = test system: OVCAR-4 ovarian
SNB-19 CNS = test system: SNB-19 CNS
UO-31 renal = test system: UO-31 renal

Structure (SMILES) | TGI (786-0 renal) | TGI (COLO 205 colon) | TGI (HOP-62 NSCLC) | TGI (HOP-92 NSCLC) | TGI (M14 melanoma) | TGI (MDA-MB-435) | TGI (MOLT-4 leukemia) | TGI (OVCAR-4 ovarian) | TGI (SNB-19 CNS) | TGI (UO-31 renal) | GI50 (COLO 205 colon) | GI50 (HOP-62 NSCLC) | GI50 (MDA-MB-435) | GI50 (SNB-19 CNS) | GI50 (HOP-92 NSCLC) | GI50 (M14 melanoma) | GI50 (MOLT-4 leukemia) | GI50 (OVCAR-4 ovarian) | GI50 (UO-31 renal)
O=[N+]([O-])c1ccc(N=Nc2c(O)ccc3cc(S(=O)(=O)O)ccc23)cc1 | > 100 µM | > 100 µM | > 100 µM | > 100 µM | > 100 µM | > 100 µM | > 100 µM | > 100 µM | > 100 µM | > 100 µM | – | – | – | – | – | – | – | – | –
O=C(CCCn1c(=O)c2sc3ccccc3c2n2nnc(-c3ccccc3)c12)NCCc1cnc[nH]1 | – | 4.8 µM | 5.27 µM | – | – | 3.06 µM | – | – | 5.04 µM | – | 1.1 µM | 2.32 µM | 1.49 µM | 1.71 µM | – | – | – | – | –
CO[C@H]1[C@@H](O)[C@@H](C)O[C@@H](O[C@H]2CC[C@@]3(C)[C@H](CC[C@@H]4[C@@H]3CC[C@]3(C)[C@@H](C5=CC(=O)OC5)CC[C@]43O)C2)[C@@H]1O | 0.01 µM | 0.221 µM | 0.00943 µM | 0.0685 µM | 0.0479 µM | 0.0693 µM | 0.436 µM | 0.0322 µM | 0.211 µM | 0.0108 µM | – | – | – | – | – | – | – | – | –
COc1cc(-c2n/c(=C\c3c(O)[nH]c4ccc(Cl)cc34)cc3c2=Nc2ccccc2-3)cc(OC)c1OC | – | 3.81 µM | 0.783 µM | 3.32 µM | 3.02 µM | 5.15 µM | 3.64 µM | 1.78 µM | 3.84 µM | 2.72 µM | 1.35 µM | 0.383 µM | 2.08 µM | 1.18 µM | 1.32 µM | 1.43 µM | 0.679 µM | 0.423 µM | 1.29 µM
[N-]=[N+]=Nc1ccc(NCCCCCC(=O)ON2C(=O)CCC2=O)c([N+](=O)[O-])c1 | > 100 µM | > 100 µM | > 100 µM | 87.6 µM | > 100 µM | > 100 µM | > 100 µM | > 100 µM | > 100 µM | > 100 µM | – | – | – | – | – | – | – | – | –
O=c1[nH][nH]c(=O)[nH]1 | > 100 µM | > 100 µM | > 100 µM | > 100 µM | > 100 µM | – | > 100 µM | > 100 µM | > 100 µM | > 100 µM | – | – | – | – | – | – | – | – | –
Cc1nc2ccccc2c(=O)n1-c1n[nH]c2ccccc12 | > 100 µM | > 100 µM | > 100 µM | > 100 µM | > 100 µM | > 100 µM | > 100 µM | > 100 µM | > 100 µM | > 100 µM | – | – | – | – | – | – | – | – | –
O=S1(=O)NNC(=NCc2ccc(Cl)c(Cl)c2)c2ccccc21 | > 100 µM | > 100 µM | – | > 100 µM | > 100 µM | – | 98.8 µM | > 100 µM | > 100 µM | > 100 µM | – | – | – | – | – | – | – | – | –
CN1CCN(c2ccc(-c3ccc4ncc(C#N)c(Nc5ccc(F)c(Cl)c5)c4c3)cc2)CC1 | – | 4.99 µM | 7.55 µM | 28.4 µM | – | 3.68 µM | 5.53 µM | 25.6 µM | 19.2 µM | 6.13 µM | 1.92 µM | 2.22 µM | 1.89 µM | 3.36 µM | 3.47 µM | – | 1.97 µM | 3.18 µM | 0.895 µM
CN(C)CCNc1ccc2ncnc3c2c1C(=O)c1ccccc1-3 | 5.47 µM | 15.5 µM | 3.25 µM | 8.43 µM | 1.42 µM | 6.21 µM | 2.31 µM | 4.27 µM | 29.8 µM | 12.9 µM | – | – | – | – | – | – | – | – | –
CCn1nc(C)c2c1C(=O)NC(C)C(=O)N2 (stereo not drawn) | – | > 100 µM | – | > 100 µM | > 100 µM | > 100 µM | – | > 100 µM | > 100 µM | > 100 µM | – | – | – | – | – | – | – | – | –
CC(C)(N)CO[C@H]1C[C@H]2CC[C@@]1(C)C2(C)C | 30.2 µM | 35.2 µM | 44 µM | 49.1 µM | 31.4 µM | 30.5 µM | 80.9 µM | 74.5 µM | 68.5 µM | 37.7 µM | – | – | – | – | – | – | – | – | –
C=C(C)[C@@H]1CC[C@]2(C)CC[C@]3(C)[C@H](CC[C@@H]4[C@@]5(C)CC[C@H](OC(=O)c6ccccc6)C(C)(C)[C@@H]5CC[C@]43C)[C@@H]12 | > 100 µM | > 100 µM | > 100 µM | > 100 µM | > 100 µM | > 100 µM | > 100 µM | > 100 µM | > 100 µM | > 100 µM | – | – | – | – | – | – | – | – | –
COc1cc2cc[n+](C)c(Cc3ccccc3)c2cc1OC | > 100 µM | > 100 µM | – | > 100 µM | > 100 µM | – | > 100 µM | > 100 µM | > 100 µM | > 100 µM | – | – | – | – | – | – | – | – | –
CNC(C)Cc1ccccc1O (stereo not drawn) | > 100 µM | > 100 µM | > 100 µM | > 100 µM | > 100 µM | – | > 100 µM | > 100 µM | > 100 µM | > 100 µM | – | – | – | – | – | – | – | – | –
Cc1nc(Cl)c(Cl)c(Cl)n1 | 1.47 µM | 1.42 µM | 0.974 µM | 0.849 µM | 0.48 µM | 1.71 µM | < 0.025 µM | 0.097 µM | 2.74 µM | 0.208 µM | – | – | – | – | – | – | – | – | –
COc1ccc(-c2cc(-c3ccccc3)n(C3OCC(OC(C)=O)C(OC(C)=O)C3OC(C)=O)c(=S)c2C#N)cc1 (stereo not drawn) | – | > 100 µM | > 100 µM | 53.6 µM | > 100 µM | > 100 µM | > 100 µM | > 100 µM | > 100 µM | > 100 µM | – | – | – | – | – | – | – | – | –
Nc1ccc2c(c1)C1=NNC(=O)CC1C2 (stereo not drawn) | – | > 100 µM | > 100 µM | > 100 µM | – | – | > 100 µM | > 100 µM | > 100 µM | > 100 µM | – | – | – | – | – | – | – | – | –
COc1ccc(NS(=O)c2ccc(-c3ccccc3)cc2)cc1 (stereo not drawn) | – | > 100 µM | > 100 µM | – | > 100 µM | > 100 µM | > 100 µM | – | > 100 µM | > 100 µM | – | – | – | – | – | – | – | – | –
CC1SC(c2ccccc2)N(Nc2c3ccccc3nc3ccccc23)C1=O (stereo not drawn) | – | > 100 µM | > 100 µM | – | > 100 µM | – | > 100 µM | > 100 µM | > 100 µM | 82.3 µM | – | – | – | – | – | – | – | – | –
CC(CN(C)C)C(=O)c1ccccc1C(=O)O (stereo not drawn) | > 100 µM | 66.3 µM | 85.8 µM | > 100 µM | 76.6 µM | 50.9 µM | 70.1 µM | > 100 µM | > 100 µM | > 100 µM | – | – | – | – | – | – | – | – | –
